Data: US9273040B2 (Merck Sharp & Dohme Corp., priority 2011, dated 2016)

How the values were obtained:
[1] = target: T1, human Nav1.5 channels stably expressed in HEK 293 cells (Homo sapiens, UniProt Q14524); test: PatchXpress 7000 automated patch-clamp, sodium current; format: cell-based; conditions: selectivity over Nav1.5
T1 construct: expressed in transfected cells
Description: (§1) To measure state and use-dependent sodium channel inhibition, test compounds were further characterized in an automated PatchXpress® assay (Molecular Devices). Two voltage-clamp protocols were used. 1) Use-dependent protocol: Cells were held at a membrane potential 20 mV negative to the potential at which ˜50% of the channels are inactivated (V0.5 inact). A train of 30 ms depolarizations to −20 mV was applied to the cells expressing Nav1.7 at a frequency of 10 Hz. […] Data was collected in the absence and presence of drug, and after drug washout. 2) A double-pulse protocol was used to measure inactivated state block. Cells were held at a potential 20 mV negative to V0.5 inact. A 8000 ms pre-pulse 7 mV positive to V0.5 inact was given followed by a hyperpolarizing 2 ms pulse to −120 mV and a 20 ms test pulse to −20 mV. Protocol was applied to cells in the absence, presence of compound and after washout. The temperature of PatchXpress instruments was maintained at 22° C. The following recording solutions were used. Internal solution (mM): 30 CsCl, 5 HEPES, 10 EGTA, 120 CsF, 5 NaF, 2MgCl2, pH=7.3 with CsOH, 324 mosmo. External solution (mM): 120 NMDG, 40 NaCl, 1 KCl, 0.5 MgCl2, 5 HEPES, 2.7 CaCl2, pH=7.5 with NMDG-OH.
(§2) For all electrophysiology experiments, offline analysis was used to correct for current rundown and to determine percent inhibition as a function of drug concentration. IC50 values were determined by fitting to the Hill equation.

[2] = target: T2, human Nav1.7 channels stably expressed in HEK 293 cells (Homo sapiens, UniProt Q15858); test: as above; format: cell-based; conditions: 22° C., read-out: potency for the Nav 1.7 sodium ion channel (as measured by PatchXpress)
T2 construct: expressed in transfected cells
T2 sequence (Q15858 whole entry): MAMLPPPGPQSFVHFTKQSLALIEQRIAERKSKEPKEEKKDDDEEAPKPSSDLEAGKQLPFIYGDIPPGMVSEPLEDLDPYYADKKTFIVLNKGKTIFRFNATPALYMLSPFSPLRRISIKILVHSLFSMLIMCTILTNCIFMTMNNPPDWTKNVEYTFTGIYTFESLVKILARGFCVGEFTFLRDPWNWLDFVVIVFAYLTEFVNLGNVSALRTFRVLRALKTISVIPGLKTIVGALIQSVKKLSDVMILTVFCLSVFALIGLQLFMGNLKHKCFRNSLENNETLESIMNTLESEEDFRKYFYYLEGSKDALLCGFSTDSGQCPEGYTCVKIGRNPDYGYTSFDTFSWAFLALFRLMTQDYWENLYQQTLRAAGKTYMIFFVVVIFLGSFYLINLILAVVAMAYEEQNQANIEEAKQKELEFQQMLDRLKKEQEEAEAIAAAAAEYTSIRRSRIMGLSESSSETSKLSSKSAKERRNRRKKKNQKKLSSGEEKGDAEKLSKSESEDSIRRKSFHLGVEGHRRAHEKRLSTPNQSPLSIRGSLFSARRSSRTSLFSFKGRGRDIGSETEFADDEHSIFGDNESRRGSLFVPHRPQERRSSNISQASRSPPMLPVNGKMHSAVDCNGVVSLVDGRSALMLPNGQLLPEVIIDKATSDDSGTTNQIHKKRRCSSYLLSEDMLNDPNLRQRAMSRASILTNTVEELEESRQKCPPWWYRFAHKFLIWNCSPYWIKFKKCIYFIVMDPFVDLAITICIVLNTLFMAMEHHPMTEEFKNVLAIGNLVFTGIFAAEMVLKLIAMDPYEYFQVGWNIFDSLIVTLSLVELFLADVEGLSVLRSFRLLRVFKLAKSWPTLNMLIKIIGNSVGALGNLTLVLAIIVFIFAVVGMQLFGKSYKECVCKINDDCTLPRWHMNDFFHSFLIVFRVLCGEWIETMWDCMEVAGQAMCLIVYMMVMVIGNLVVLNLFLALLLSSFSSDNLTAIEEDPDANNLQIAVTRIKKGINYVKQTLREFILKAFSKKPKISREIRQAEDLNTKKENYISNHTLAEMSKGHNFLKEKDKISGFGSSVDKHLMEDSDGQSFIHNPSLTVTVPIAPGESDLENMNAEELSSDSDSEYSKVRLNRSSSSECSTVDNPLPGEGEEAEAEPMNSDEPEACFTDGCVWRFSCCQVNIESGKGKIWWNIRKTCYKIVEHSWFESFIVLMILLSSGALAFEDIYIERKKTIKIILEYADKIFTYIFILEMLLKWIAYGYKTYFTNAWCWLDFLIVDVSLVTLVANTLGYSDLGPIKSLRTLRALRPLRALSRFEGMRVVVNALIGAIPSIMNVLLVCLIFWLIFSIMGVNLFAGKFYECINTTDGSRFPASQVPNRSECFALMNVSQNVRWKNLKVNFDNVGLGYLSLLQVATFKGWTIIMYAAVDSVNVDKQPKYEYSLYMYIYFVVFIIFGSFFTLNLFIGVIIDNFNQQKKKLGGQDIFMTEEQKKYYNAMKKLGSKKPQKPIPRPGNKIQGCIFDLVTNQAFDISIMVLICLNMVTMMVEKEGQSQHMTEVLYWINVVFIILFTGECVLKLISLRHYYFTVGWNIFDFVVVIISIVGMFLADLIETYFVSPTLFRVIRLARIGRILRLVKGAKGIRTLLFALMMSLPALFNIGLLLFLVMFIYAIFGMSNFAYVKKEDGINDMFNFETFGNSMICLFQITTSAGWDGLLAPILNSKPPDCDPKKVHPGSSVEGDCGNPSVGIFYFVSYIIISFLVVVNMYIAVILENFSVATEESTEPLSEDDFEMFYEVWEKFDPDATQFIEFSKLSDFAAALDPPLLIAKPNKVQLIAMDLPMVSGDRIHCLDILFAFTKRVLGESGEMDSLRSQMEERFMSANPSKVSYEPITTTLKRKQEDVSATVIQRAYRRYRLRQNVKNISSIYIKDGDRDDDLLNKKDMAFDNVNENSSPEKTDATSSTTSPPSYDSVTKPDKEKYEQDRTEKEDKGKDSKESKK
Description: as §1, §2

T1 sequence (Q14524 whole entry): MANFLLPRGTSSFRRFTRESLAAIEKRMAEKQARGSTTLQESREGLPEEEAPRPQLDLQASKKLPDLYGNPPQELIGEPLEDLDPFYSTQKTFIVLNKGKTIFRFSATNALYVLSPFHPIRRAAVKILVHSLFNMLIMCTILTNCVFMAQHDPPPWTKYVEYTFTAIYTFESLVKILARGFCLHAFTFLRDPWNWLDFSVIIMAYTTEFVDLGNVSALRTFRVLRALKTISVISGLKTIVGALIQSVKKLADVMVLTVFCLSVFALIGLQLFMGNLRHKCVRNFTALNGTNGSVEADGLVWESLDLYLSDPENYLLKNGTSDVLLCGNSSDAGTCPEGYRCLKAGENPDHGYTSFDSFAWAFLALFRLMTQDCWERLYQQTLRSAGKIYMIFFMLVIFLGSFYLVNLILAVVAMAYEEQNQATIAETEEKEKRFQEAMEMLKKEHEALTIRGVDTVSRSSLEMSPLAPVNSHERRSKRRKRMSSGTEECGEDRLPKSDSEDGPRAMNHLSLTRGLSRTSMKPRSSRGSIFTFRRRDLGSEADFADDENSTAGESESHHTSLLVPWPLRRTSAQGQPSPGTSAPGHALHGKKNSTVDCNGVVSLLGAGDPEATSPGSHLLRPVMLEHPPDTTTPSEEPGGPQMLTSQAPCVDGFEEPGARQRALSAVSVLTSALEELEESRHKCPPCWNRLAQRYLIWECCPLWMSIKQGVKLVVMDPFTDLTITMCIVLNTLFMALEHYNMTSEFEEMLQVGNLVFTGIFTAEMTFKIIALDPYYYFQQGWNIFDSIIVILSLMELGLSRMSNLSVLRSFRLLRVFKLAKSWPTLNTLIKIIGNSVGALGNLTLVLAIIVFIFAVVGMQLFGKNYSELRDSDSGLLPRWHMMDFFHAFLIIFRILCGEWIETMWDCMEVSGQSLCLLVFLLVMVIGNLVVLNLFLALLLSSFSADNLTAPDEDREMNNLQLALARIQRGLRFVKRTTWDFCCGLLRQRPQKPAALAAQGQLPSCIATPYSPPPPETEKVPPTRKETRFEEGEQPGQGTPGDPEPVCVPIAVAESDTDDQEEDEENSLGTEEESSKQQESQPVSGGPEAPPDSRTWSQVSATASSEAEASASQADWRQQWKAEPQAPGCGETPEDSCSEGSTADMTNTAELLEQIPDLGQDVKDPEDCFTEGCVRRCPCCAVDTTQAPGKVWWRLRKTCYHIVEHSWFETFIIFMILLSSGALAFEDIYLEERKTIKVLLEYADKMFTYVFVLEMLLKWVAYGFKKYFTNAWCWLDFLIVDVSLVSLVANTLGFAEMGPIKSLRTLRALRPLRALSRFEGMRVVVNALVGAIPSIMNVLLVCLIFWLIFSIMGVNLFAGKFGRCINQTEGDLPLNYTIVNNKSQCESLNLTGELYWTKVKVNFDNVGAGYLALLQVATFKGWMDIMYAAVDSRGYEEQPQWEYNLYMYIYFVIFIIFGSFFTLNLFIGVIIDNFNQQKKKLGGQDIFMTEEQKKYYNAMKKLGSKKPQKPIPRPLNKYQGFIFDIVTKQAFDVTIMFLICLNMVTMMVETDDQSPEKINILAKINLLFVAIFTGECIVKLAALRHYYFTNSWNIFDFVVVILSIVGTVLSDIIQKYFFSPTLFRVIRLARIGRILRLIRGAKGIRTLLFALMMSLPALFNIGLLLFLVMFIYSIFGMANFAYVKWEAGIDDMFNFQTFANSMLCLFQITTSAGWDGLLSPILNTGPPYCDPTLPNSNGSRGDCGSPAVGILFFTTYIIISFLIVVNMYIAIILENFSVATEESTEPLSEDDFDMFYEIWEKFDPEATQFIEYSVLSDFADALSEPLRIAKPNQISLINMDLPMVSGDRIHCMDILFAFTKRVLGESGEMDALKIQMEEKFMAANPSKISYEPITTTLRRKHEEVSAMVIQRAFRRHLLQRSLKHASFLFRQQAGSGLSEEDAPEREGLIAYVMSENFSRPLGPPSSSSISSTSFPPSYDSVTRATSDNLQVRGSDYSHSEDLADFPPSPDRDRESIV

Structure (SMILES)	ratio of Nav 1.5:Nav 1.7 potency, determined by PatchXpress measurement [1]	IC50 [2] [nM]
O=c1oc2cc(S(=O)(=O)Nc3ncns3)c(F)cc2n1[C@H]1CC2(CCC2)Oc2ccc(F)cc21 [Compound 39-17, 5-fluoro-3-[(4S)-6-fluoro-3,4-dihydrospiro[chromene-2,1′-cyclobutan]-4-yl]-2-oxo-N-1,2,4-thiadiazol-5-yl-2,3-dihydro-1,3-benzoxazole-6-sulfonamide]	115	53
Cc1cc2c(cc1S(=O)(=O)Nc1ncns1)oc(=O)n2[C@H](C)c1ccccc1 [Compound 38-3]	37	43
Nc1cc2cccc(Cn3c(=O)oc4cc(S(=O)(=O)Nc5ncns5)c(F)cc43)c2cn1 [Compound 27-5, 3-((3-aminoisoquinolin-8-yl)methyl)-5-fluoro-2-oxo-N-(1,2,4-thiadiazol-5-yl)-2,3-dihydrobenzo[d]oxazole-6-sulfonamide]	450	67
C[C@H](c1ccccc1C#CC(C)(C)N)n1c(=O)oc2cc(S(=O)(=O)Nc3ncns3)c(F)cc21 [Compound 17-10, 3-{(1R)-1-[2-(3-amino-3-methylbut-1-yn-1-yl)phenyl]ethyl}-5-fluoro-2-oxo-N-1,2,4-thiadiazol-5-yl-2,3-dihydro-1,3-benzoxazole-6-sulfonamide]	534	56
C[C@H](c1ccccc1C#CC1(O)CCCC1)n1c(=O)oc2cc(S(=O)(=O)Nc3ncns3)c(F)cc21 [Compound 17-3, 5-fluoro-3-[(1R)-1-{2-[(1-hydroxycyclopentyl)ethynyl]phenyl}ethyl]-2-oxo-N-1,2,4-thiadiazol-5-yl-2,3-dihydro-1,3-benzoxazole-6-sulfonamide]	97	172
COC(=O)NC1CCc2cccc(Cn3c(=O)oc4cc(S(=O)(=O)Nc5ncns5)c(F)cc43)c2C1 (single isomer, unassigned) [Compound 23-1, methyl (8-((6-(N-(1,2,4-thiadiazol-5-yl)sulfamoyl)-5-fluoro-2-oxobenzo[d]oxazol-3(2H)-yl)methyl)-1,2,3,4-tetrahydronaphthalen-2-yl)carbamate]	71	122
O=c1oc2cc(S(=O)(=O)Nc3nccs3)c(F)cc2n1C1CCCc2c(F)cccc21 (centres unmarked) [Compound 43-8, 5-fluoro-3-(5-fluoro-1,2,3,4-tetrahydronaphthalen-1-yl)-2-oxo-N-1,3-thiazol-2-yl-2,3-dihydro-1,3-benzoxazole-6-sulfonamide]	75	71
CNCC#Cc1ccccc1[C@@H](C)n1c(=O)oc2cc(S(=O)(=O)Nc3ncns3)c(F)cc21 [Compound 17-11, 5-fluoro-3-[(1R)-1-{2-[3-(methylamino)prop-1-yn-1-yl]phenyl}ethyl]-2-oxo-N-1,2,4-thiadiazol-5-yl-2,3-dihydro-1,3-benzoxazole-6-sulfonamide]	589	51
O=c1oc2cc(S(=O)(=O)Nc3ncns3)c(F)cc2n1Cc1cccc2c1CC(NCC(F)(F)F)CC2 (racemic) [Compound 23-7, (+/−)-5-fluoro-2-oxo-N-1,2,4-thiadiazol-5-yl-3-({7-[(2,2,2-trifluoroethyl)amino]-5,6,7,8-tetrahydronaphthalen-1-yl}methyl)-2,3-dihydro-1,3-benzoxazole-6-sulfonamide]	146	206
CC(c1cccc2c1CC(N1CC(F)(F)C1)CC2)n1c(=O)oc2cc(S(=O)(=O)Nc3ncns3)c(F)cc21 (racemic) [Compound 23-12, (+/−)-3-{1-[7-(3,3-difluoroazetidin-1-yl)-5,6,7,8-tetrahydronaphthalen-1-yl]ethyl}-5-fluoro-2-oxo-N-1,2,4-thiadiazol-5-yl-2,3-dihydro-1,3-benzoxazole-6-sulfonamide]	46	109
C[C@H](c1ccccc1CN1CCCC1)n1c(=O)oc2cc(S(=O)(=O)Nc3ncns3)c(F)cc21 [Compound 18-2, (R)-5-fluoro-2-oxo-3-(1-(2-(pyrrolidin-1-ylmethyl)phenyl)ethyl)-N-(1,2,4-thiadiazol-5-yl)-2,3-dihydrobenzo[d]oxazole-6-sulfonamide]	446	24
C[C@H](c1cccc(-c2ccn(C)n2)c1)n1c(=O)oc2cc(S(=O)(=O)Nc3nccs3)c(F)cc21 [Compound 43-25, 5-fluoro-3-{(1R)-1-[3-(1-methyl-1H-pyrazol-3-yl)phenyl]ethyl}-2-oxo-N-1,3-thiazol-2-yl-2,3-dihydro-1,3-benzoxazole-6-sulfonamide]	86	306
C[C@@H](c1cccc2ccncc12)n1c(=O)oc2cc(S(=O)(=O)Nc3ncns3)c(F)cc21 [Compound 14-10, 5-fluoro-3-[(1S)-1-isoquinolin-8-ylethyl]-2-oxo-N-1,2,4-thiadiazol-5-yl-2,3-dihydro-1,3-benzoxazole-6-sulfonamide]	27	779
O=c1oc2cc(S(=O)(=O)Nc3ncns3)c(F)cc2n1Cc1cccc2c1CC(NCCO)CC2 (racemic) [Compound 23-22, (+/−)-5-fluoro-3-({7-[(2-hydroxyethyl)amino]-5,6,7,8-tetrahydronaphthalen-1-yl}methyl)-2-oxo-N-1,2,4-thiadiazol-5-yl-2,3-dihydro-1,3-benzoxazole-6-sulfonamide]	221	26
Cc1ccc2c(c1)C(n1c(=O)oc3cc(S(=O)(=O)Nc4nccs4)c(F)cc31)CCC2 (centres unmarked) [Compound 43-7, 5-fluoro-3-(7-methyl-1,2,3,4-tetrahydronaphthalen-1-yl)-2-oxo-N-1,3-thiazol-2-yl-2,3-dihydro-1,3-benzoxazole-6-sulfonamide]	137	111
CNC1CCc2cccc(Cn3c(=O)oc4cc(S(=O)(=O)Nc5ncns5)ccc43)c2C1 (racemic) [Compound 23-18, (+/−)-3-{[7-(methylamino)-5,6,7,8-tetrahydronaphthalen-1-yl]methyl}-2-oxo-N-1,2,4-thiadiazol-5-yl-2,3-dihydro-1,3-benzoxazole-6-sulfonamide]	642	47
O=c1oc2cc(S(=O)(=O)Nc3ncns3)c(F)cc2n1C1CCCc2ccccc21 (centres unmarked) [Compound 39-10, 5-fluoro-2-oxo-3-(1,2,3,4-tetrahydronaphthalen-1-yl)-N-1,2,4-thiadiazol-5-yl-2,3-dihydro-1,3-benzoxazole-6-sulfonamide]	199	168
Nc1ccc2c(c1)C(n1c(=O)oc3cc(S(=O)(=O)Nc4nccs4)c(F)cc31)CCC2 (centres unmarked) [Compound 43-16, 3-(7-amino-1,2,3,4-tetrahydronaphthalen-1-yl)-5-fluoro-2-oxo-N-1,3-thiazol-2-yl-2,3-dihydro-1,3-benzoxazole-6-sulfonamide]	329	211
CC(c1cccc(-c2ccnn2C)c1)n1c(=O)oc2cc(S(=O)(=O)Nc3ncns3)c(F)cc21 (centres unmarked) [Compound 13-10, 5-fluoro-3-{1-[3-(1-methyl-1H-pyrazol-5-yl)phenyl]ethyl}-2-oxo-N-1,2,4-thiadiazol-5-yl-2,3-dihydro-1,3-benzoxazole-6-sulfonamide]	256	63
CC(=O)NC1CCc2cccc(Cn3c(=O)oc4cc(S(=O)(=O)Nc5ncns5)c(F)cc43)c2C1 (centres unmarked) [Compound 22-1, N-(8-((6-(N-(1,2,4-thiadiazol-5-yl)sulfamoyl)-5-fluoro-2-oxobenzo[d]oxazol-3(2H)-yl)methyl)-1,2,3,4-tetrahydronaphthalen-2-yl)acetamide]	172	175
C[C@H](c1cccc2c1CC(NS(C)(=O)=O)CC2)n1c(=O)oc2cc(S(=O)(=O)Nc3ncns3)c(F)cc21 (stereo partly drawn) [Compound 36-7, 5-fluoro-3-[(1R)-1-{7-[(methylsulfonyl)amino]-5,6,7,8-tetrahydronaphthalen-1-yl)ethyl]-2-oxo-N-1,2,4-thiadiazol-5-yl-2,3-dihydro-1,3-benzoxazole-6-sulfonamide]	107	27
CC(=O)OCC(=O)NC1CCc2cccc(Cn3c(=O)oc4cc(S(=O)(=O)Nc5ncns5)c(F)cc43)c2C1 (single isomer, unassigned) [Compound 23-4, (R or S)-2-[(8-{[5-fluoro-2-oxo-6-(1,2,4-thiadiazol-5-ylsulfamoyl)-1,3-benzoxazol-3(2H)-yl]methyl}-1,2,3,4-tetrahydronaphthalen-2-yl)amino]-2-oxoethyl acetate]	97	310
